Some test systems named below: IGROV-1; TK-10; HCT-15; COLO 205; SN12C; UO-31; ACHN; U-251; OVCAR-8; SF-268; OVCAR-5; MDA-MB-231; SNB-19; HT-29; NCI/ADR-RES; SF-539; OVCAR-3; Malme-3M; SK-MEL-5; SR.
Assay in all cases: inhibition of tumour cell growth, NCI panel, 48 h

Molecules are shown by their SMILES.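 A five-concentration, 48-hour dose response in 96-well plates underlies each endpoint, interpolated linearly between surrounding concentrations. The concentration for 50% growth inhibition is given as GI50.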 Active and inactive are the calls of the source. Rule as the data show it: active = GI50 up to about 1.1 µM and inactive = higher. Bounds are passed on as bounds.

With `CCOC(=O)C(C#N)C1=CC(=O)C(=O)c2ccc(O)cc21` (stereo not given), the GI50 with IGROV-1 was 78 µM (inactive); with TK-10 it was > 100 µM (inactive); in the experiment on HCT-15, over 100 µM; with COLO 205 it was > 100 µM (inactive); in the experiment with SN12C, > 100 µM (inactive); in the experiment on UO-31 it was 30.5 µM (inactive). The GI50 in the experiment on ACHN is 42.3 µM (inactive); with U-251 it was 48.5 µM (inactive); in the experiment on OVCAR-8, 44.7 µM (inactive); in the experiment with SF-268, > 100 µM (inactive); with OVCAR-5, > 100 µM (inactive); in the experiment on MDA-MB-231, 32.1 µM (inactive). The GI50 in the experiment on SNB-19 was > 100 µM (inactive); in the experiment with HT-29, > 100 µM (inactive); in the experiment with NCI/ADR-RES, > 100 µM (inactive); in the experiment on SF-539, 55.3 µM (inactive); in the experiment with OVCAR-3, 64 µM (inactive); in the experiment on Malme-3M, 47 µM (inactive). Besides, the figures for the GI50 with SK-MEL-5 and in the experiment with SR were 42.7 µM (inactive) and > 100 µM (inactive), respectively.

As for `CCOc1cc(C(c2c(O)c3ccccc3oc2=O)c2c(O)c3ccccc3oc2=O)ccc1OC`, the GI50 is 17.7 µM (inactive) in the experiment on IGROV-1; 18 µM (inactive) with TK-10; 21.3 µM with HCT-15; 20 µM (inactive) in the experiment with COLO 205; 18.8 µM (inactive) in the experiment with SN12C; 22.8 µM (inactive) in the experiment on UO-31. For the same compound, the GI50 in the experiment with ACHN is 18 µM (inactive); in the experiment on U-251 it was 15.8 µM (inactive); in the experiment with OVCAR-8 it was 20 µM (inactive); in the experiment on SF-268, 18.9 µM (inactive); with OVCAR-5, 19.6 µM (inactive); in the experiment with MDA-MB-231, 16 µM (inactive). Moreover, the GI50 is 23.8 µM (inactive) in the experiment with SNB-19; 24.2 µM (inactive) in the experiment on HT-29; 27.4 µM (inactive) in the experiment with NCI/ADR-RES; 20.7 µM (inactive) in the experiment on SF-539; 16.3 µM (inactive) with OVCAR-3; 19.8 µM (inactive) in the experiment on Malme-3M. For the same compound, the GI50 was 23.2 µM (inactive) in the experiment on SK-MEL-5 and 28.1 µM (inactive) in the experiment on SR.

With `COc1ccc2c(c1)c1nn(CCN3CCCCC3)c3ccc4c(=O)n(CCN(C)C)c(=O)n2c4c13`, the GI50 was < 0.01 µM (active) in the experiment on IGROV-1; 0.029 µM (active) in the experiment on TK-10; under 0.01 µM in the experiment on HCT-15; 0.148 µM (active) with COLO 205; < 0.01 µM (active) in the experiment with SN12C; < 0.0116 µM (active) with UO-31. Besides, the GI50 in the experiment on ACHN is < 0.01 µM (active); in the experiment on U-251, < 0.01 µM (active); in the experiment with OVCAR-8, < 0.01 µM (active); in the experiment with SF-268, < 0.01 µM (active); in the experiment with OVCAR-5, < 0.0105 µM (active); in the experiment on MDA-MB-231, < 0.0119 µM (active). For the same compound, the GI50 with SNB-19 is < 0.0138 µM (active); in the experiment with HT-29, < 0.01 µM (active); with NCI/ADR-RES, < 0.153 µM (active); in the experiment on SF-539, 0.0284 µM (active); in the experiment on OVCAR-3, 0.0151 µM (active); in the experiment with Malme-3M, 0.0619 µM (active). The GI50 with SK-MEL-5 is 0.0406 µM (active); in the experiment with SR it was < 0.01 µM (active).

For `CC(C)=CC(O)C/C(C)=C/CC/C(C)=C/CCC1(C)C(CCCO)/C(=C(/C)C=O)CCC1(C)O` (stereo not given), the GI50 was 24.8 µM (inactive) in the experiment with IGROV-1; 30.3 µM (inactive) in the experiment with TK-10; 46.3 µM with HCT-15; 32.7 µM (inactive) in the experiment on COLO 205; 31.9 µM (inactive) in the experiment with SN12C; 33.7 µM (inactive) with UO-31. The GI50 was 20.6 µM (inactive) in the experiment with ACHN; 34 µM (inactive) in the experiment on U-251; 47 µM (inactive) in the experiment on OVCAR-8; 40.5 µM (inactive) with SF-268; > 100 µM (inactive) in the experiment on OVCAR-5; 24.7 µM (inactive) in the experiment with MDA-MB-231. Besides, the GI50 in the experiment on SNB-19 is 97.7 µM (inactive); in the experiment on HT-29, 26.1 µM (inactive); in the experiment on NCI/ADR-RES, 65.3 µM (inactive); with SF-539, 25.1 µM (inactive); in the experiment with OVCAR-3, 86.1 µM (inactive); in the experiment with Malme-3M, 34 µM (inactive). Further, the GI50 was 43.9 µM (inactive) with SK-MEL-5 and 37 µM (inactive) in the experiment on SR.

Consider `CN(CCCNC(=O)c1cc(-c2ccccc2)nc2ccccc12)CCCNC(=O)c1cc(-c2ccccc2)nc2ccccc12`, for which the GI50 in the experiment on IGROV-1 is 4.41 µM (inactive); in the experiment on TK-10, 4.45 µM (inactive); in the experiment on HCT-15, 4 µM; in the experiment on COLO 205 it was 1.79 µM (inactive); with SN12C, 5.85 µM (inactive); in the experiment with UO-31, 2.31 µM (inactive). Further, the GI50 in the experiment on ACHN was 2.81 µM (inactive); with U-251, 2.04 µM (inactive); in the experiment on OVCAR-8, 2.32 µM (inactive); in the experiment on SF-268 it was 5.32 µM (inactive); with OVCAR-5, 2.28 µM (inactive); in the experiment with MDA-MB-231, 2.44 µM (inactive). In addition, the GI50 was 5.97 µM (inactive) in the experiment on SNB-19; 2 µM (inactive) with HT-29; 2.84 µM (inactive) in the experiment on NCI/ADR-RES; 2.2 µM (inactive) in the experiment with SF-539; 3.27 µM (inactive) in the experiment with OVCAR-3; 1.94 µM (inactive) in the experiment on Malme-3M. Further, the GI50 is 1.66 µM (inactive) with SK-MEL-5 and 3.36 µM (inactive) with SR.

Regarding `CC1(c2ccc(Cl)cc2)CC(c2ccc(Cl)cc2)=C(C#N)C(=C(C#N)C#N)N1` (stereo not given), the GI50 in the experiment on IGROV-1 was 14.7 µM (inactive); in the experiment on TK-10, 17.8 µM (inactive); in the experiment on HCT-15, 15.8 µM; with COLO 205, 12.8 µM (inactive); with SN12C, 15 µM (inactive); with UO-31, 16.3 µM (inactive). Also, the GI50 in the experiment on ACHN is 14.5 µM (inactive); with U-251, 12.2 µM (inactive); in the experiment on OVCAR-8, 14.9 µM (inactive); in the experiment with SF-268, 7.83 µM (inactive); with OVCAR-5, 25.8 µM (inactive); with MDA-MB-231, 22.5 µM (inactive). For the same compound, the GI50 with SNB-19 is 17.5 µM (inactive); in the experiment on HT-29 it was 12.8 µM (inactive); with NCI/ADR-RES, 19.3 µM (inactive); in the experiment with SF-539, 18.4 µM (inactive); in the experiment on OVCAR-3 it was 11.3 µM (inactive); in the experiment with Malme-3M, 15.7 µM (inactive). In addition, the GI50 with SK-MEL-5 is 13.9 µM (inactive); in the experiment with SR, 11.5 µM (inactive).

Turning to `FC(F)(F)c1cccc(COCCN2CCN(Cc3cccc(C(F)(F)F)c3)CC2)c1`, the GI50 with IGROV-1 is 15.6 µM (inactive); in the experiment with TK-10, 13.7 µM (inactive); in the experiment on HCT-15, 16.2 µM; in the experiment on COLO 205, 15.7 µM (inactive); with SN12C it was 18.5 µM (inactive); with UO-31 it was 12.3 µM (inactive). The GI50 with ACHN is 15.7 µM (inactive); with U-251, 18.1 µM (inactive); with OVCAR-8, 18.7 µM (inactive); with SF-268, 15.3 µM (inactive); in the experiment on OVCAR-5, 16.7 µM (inactive); in the experiment on MDA-MB-231, 19.3 µM (inactive). Besides, the GI50 is 15.6 µM (inactive) in the experiment with SNB-19; 21.7 µM (inactive) with HT-29; 18.6 µM (inactive) with NCI/ADR-RES; 18 µM (inactive) with SF-539; 20 µM (inactive) in the experiment on OVCAR-3; 8.09 µM (inactive) with Malme-3M. Besides, the GI50 with SK-MEL-5 is 15.8 µM (inactive); with SR it was 23.4 µM (inactive).

As to `CC[C@@]1(O)C(=O)OCc2c1cc1n(c2=O)Cc2c-1nc1ccccc1c2/C=N/NC(=O)c1ccc(N)cc1`, the GI50 was 0.279 µM (active) in the experiment with IGROV-1; 15.6 µM (inactive) with TK-10; 2.95 µM with HCT-15; 4.53 µM (inactive) in the experiment with COLO 205; 0.0543 µM (active) with SN12C; 0.258 µM (active) with UO-31. Further, the GI50 was 0.0244 µM (active) in the experiment with ACHN; < 0.0141 µM (active) with U-251; 0.0944 µM (active) in the experiment on OVCAR-8; < 0.01 µM (active) in the experiment with SF-268; 5.22 µM (inactive) in the experiment with OVCAR-5; 3.06 µM (inactive) with MDA-MB-231. The GI50 in the experiment with SNB-19 is 0.0175 µM (active); with HT-29 it was 4.68 µM (inactive); in the experiment with NCI/ADR-RES, 0.392 µM (active); in the experiment on SF-539 it was < 0.01 µM (active); with OVCAR-3, 0.714 µM (active); in the experiment with Malme-3M it was 0.452 µM (active). The figures for the GI50 in the experiment with SK-MEL-5 and in the experiment on SR were 0.136 µM (active) and < 0.01 µM (active), respectively.

Regarding `Cc1cc(=O)oc2cc(SC(=O)N(C)C)ccc12`, the GI50 with IGROV-1 was > 100 µM (inactive); in the experiment on TK-10, > 100 µM (inactive); in the experiment on HCT-15, over 100 µM; in the experiment on COLO 205, > 100 µM (inactive); with SN12C it was > 100 µM (inactive); in the experiment on UO-31, > 100 µM (inactive). Moreover, the GI50 is > 100 µM (inactive) in the experiment with ACHN; > 100 µM (inactive) with U-251; > 100 µM (inactive) in the experiment on OVCAR-8; > 100 µM (inactive) with SF-268; 77.8 µM (inactive) in the experiment with OVCAR-5; > 100 µM (inactive) in the experiment with MDA-MB-231. The GI50 with SNB-19, in the experiment on HT-29, in the experiment on NCI/ADR-RES, in the experiment on SF-539, in the experiment on OVCAR-3 and in the experiment with Malme-3M was > 100 µM (inactive) throughout. Also, the GI50 with SK-MEL-5 and in the experiment with SR was > 100 µM (inactive) throughout.

For `C/C(=C\CSCC(N)C(=O)O)CC/C=C(\C)CNc1ccccc1` (stereo not given), the GI50 with IGROV-1 was > 100 µM (inactive); in the experiment with TK-10, > 100 µM (inactive); with HCT-15, over 100 µM; in the experiment on COLO 205 it was > 100 µM (inactive); with SN12C it was > 100 µM (inactive); in the experiment with UO-31, 82 µM (inactive). For the same compound, the GI50 with ACHN, in the experiment with U-251, in the experiment on OVCAR-8, in the experiment on SF-268, with OVCAR-5 and with MDA-MB-231 was > 100 µM (inactive) each time. Besides, the GI50 in the experiment with SNB-19, in the experiment with HT-29, with NCI/ADR-RES, in the experiment on SF-539, in the experiment with OVCAR-3 and in the experiment with Malme-3M was > 100 µM (inactive) in each case. In addition, the GI50 was 75.2 µM (inactive) in the experiment on SK-MEL-5 and > 100 µM (inactive) in the experiment with SR.

The values are drawn from ChEMBL document CHEMBL1201862, “PubChem BioAssay data set” (2004).
